In patent publication US20230159496A1, “COMPOUNDS AND METHODS FOR MODULATING SPLICING” (REMIX THERAPEUTICS INC., priority 2020, published 2023) one finds AC50 and IC50 data, which are given here for eleven compounds.

Where two headings read alike, the source gives them in different places.

Holding throughout (format): cell-based
One assay deals with HTT mRNA. As to the kind of experiment: Splicing assay (RT-qPCR) monitoring HTT canonical junction (CJ) and alternative junction (AJ) mRNA isoforms. To be noted: A673 or K562 cells, 24 h treatment, top dose 10 uM. Put shortly: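 A673 or K562 cells treated 24 h at 37 °C with an 11-point 3-fold dilution (top 10 uM final, DMSO ≤0.25%). Lysates assayed by one-step RT-qPCR for HTT CJ and AJ isoforms, normalized to GAPDH, GUSB (K562) or PPIA (A673).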

The subject of the next assay is SMN2 CJ mRNA. Put plainly: Gene panel canonical junction qPCR assay, SMN2. The settings on record: decrease in CJ mRNA levels, gene panel; read-out: SMN2 IC50. The essentials:
(§1)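 A673 or K562 cells were treated for 24 h at 37 °C with an 11-point 3-fold dilution, top dose 10 uM, DMSO ≤0.25%. Canonical junction mRNA in lysates was quantified by one-step RT-qPCR and normalized to GAPDH, GUSB or PPIA.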

A further assay has as its system Target C CJ mRNA. As to the kind of experiment: Gene panel canonical junction qPCR assay, Target C. The settings on record: decrease in CJ mRNA levels, gene panel; read-out: Target C IC50. Put shortly: as §1
The test system of another assay is HTT CJ mRNA. Put plainly: Gene panel canonical junction qPCR assay, HTT. To be noted: decrease in CJ mRNA levels, gene panel; read-out: HTT IC50. Put shortly:
as §1

[1] abbreviates: decrease in CJ mRNA (50% response), read-out: HTT CJ AC50.
Setting [2] is: increase in AJ mRNA (50% response), read-out: HTT AJ AC50.

With `Cc1cn2nc(-c3ccc4c(=O)n(C5CCCNCC5)ncc4c3)cc(C)c2n1` (stereo not shown) [Compound 283, 2-(azepan-4-yl)-6-{2,8-dimethylimidazo[1,2-b]pyridazin-6-yl}phthalazin-1-one], the AC50 in the assay with HTT mRNA (setting [1]) and in the assay on HTT mRNA (setting [2]) was 100 to 1000 nM in each case. For the same compound, the IC50 with SMN2 CJ mRNA is less than 100 nM; with Target C CJ mRNA it was 100 to 1000 nM; in the assay on HTT CJ mRNA, 100 to 1000 nM.

Regarding `Cn1cc2ccc(-n3cnc4cc(NC5CCNCC5)ccc4c3=O)cc2n1` [Compound 204, 3-(2-methyl-2H-indazol-6-yl)-7-(piperidin-4-ylamino)quinazolin-4(3H)-one], the AC50 in the assay with HTT mRNA (setting [1]) and in the assay with HTT mRNA (setting [2]) was more than 10000 nM each time. Further, the IC50 in the assay on SMN2 CJ mRNA, in the assay with Target C CJ mRNA and in the assay on HTT CJ mRNA was more than 10000 nM in each case.

Regarding `Cc1cn2cc(-c3ccc4c(=O)n(C5CCNCC5)cnc4c3)nc2c(C)n1` [Compound 286], the AC50 in the assay on HTT mRNA (setting [1]) and in the assay on HTT mRNA (setting [2]) was 1000 to 10000 nM in each case. For the same compound, the IC50 in the assay on SMN2 CJ mRNA is 100 to 1000 nM; with Target C CJ mRNA, 1000 to 10000 nM; in the assay on HTT CJ mRNA, 1000 to 10000 nM.

As for `Cc1cn2nc(-c3ccc4c(=O)n(C5CCNC5)ncc4c3)cc(C)c2n1` (stereo not shown) [Compound 264, 6-{2,8-dimethylimidazo[1,2-b]pyridazin-6-yl}-2-(pyrrolidin-3-yl)phthalazin-1-one], the AC50 with HTT mRNA (setting [1]) and in the assay on HTT mRNA (setting [2]) was 1000 to 10000 nM throughout. Moreover, the figures for the IC50 in the assay with SMN2 CJ mRNA, in the assay on Target C CJ mRNA and in the assay on HTT CJ mRNA were 100 to 1000 nM, more than 10000 nM and 1000 to 10000 nM, respectively.

Take `Cn1cc2cc(-c3ccc4c(=O)n(C5CCNCC5)cnc4c3)cc(F)c2n1` [Compound 206, 7-(7-fluoro-2-methyl-2H-indazol-5-yl)-3-(piperidin-4-yl)quinazolin-4(3H)-one]: the AC50 in the assay on HTT mRNA (setting [1]) and with HTT mRNA (setting [2]) was 100 to 1000 nM throughout. The results for the IC50 in the assay with SMN2 CJ mRNA, in the assay on Target C CJ mRNA and in the assay on HTT CJ mRNA were less than 100 nM, 100 to 1000 nM and 100 to 1000 nM, respectively.

As to `Cn1cc2cc(-n3cnc4cc(C5=CC6CCC(C5)N6)ccc4c3=O)ccc2n1` (stereo not shown) [Compound 160, 7-(8-azabicyclo[3.2.1]oct-2-en-3-yl)-3-(2-methyl-2H-indazol-5-yl)quinazolin-4(3H)-one], the AC50 in the assay on HTT mRNA (setting [1]) and with HTT mRNA (setting [2]) was more than 10000 nM throughout. Moreover, the IC50 in the assay on SMN2 CJ mRNA, with Target C CJ mRNA and with HTT CJ mRNA was more than 10000 nM in each case.

For `Cc1nc2c(F)cc(-c3ccc4c(=O)n(C5CCN(C)CC5)cnc4c3)cc2s1` [Compound 301], the AC50 in the assay with HTT mRNA (setting [1]) and in the assay on HTT mRNA (setting [2]) was 1000 to 10000 nM each time. Further, the concentration for half-maximal inhibition (IC50) with SMN2 CJ mRNA, in the assay on Target C CJ mRNA and with HTT CJ mRNA was 1000 to 10000 nM in each case.

In the case of `Cn1cc2cc(-c3ccc4c(=O)n(C5CCNCC5)ncc4c3)cc(F)c2n1` [Compound 249], the concentration at half-maximal activity (AC50) in the assay with HTT mRNA (setting [1]) and in the assay on HTT mRNA (setting [2]) was 1000 to 10000 nM throughout. Also, the IC50 with SMN2 CJ mRNA, in the assay on Target C CJ mRNA and in the assay on HTT CJ mRNA was 1000 to 10000 nM in each case.

`Cc1nc2c(F)cc(-c3ccc4c(=O)n(C5CCNCC5)ncc4c3)cc2o1` [Compound 250]: the AC50 with HTT mRNA (setting [1]) and in the assay with HTT mRNA (setting [2]) was less than 100 nM in each case. In addition, the figures for the IC50 in the assay with SMN2 CJ mRNA, in the assay on Target C CJ mRNA and in the assay with HTT CJ mRNA were less than 100 nM, 100 to 1000 nM and less than 100 nM, respectively.

Regarding `CN1CCN(c2ccc3nc(-c4ccc5nn(C)cc5c4)[nH]c(=O)c3c2)CC1` [Compound 108, 2-(2-methyl-2H-indazol-5-yl)-6-(4-methylpiperazin-1-yl)quinazolin-4(3H)-one], the AC50 in the assay on HTT mRNA (setting [1]) and with HTT mRNA (setting [2]) was more than 10000 nM throughout. Further, the IC50 with SMN2 CJ mRNA is 1000 to 10000 nM; in the assay with Target C CJ mRNA, 1000 to 10000 nM; in the assay on HTT CJ mRNA, more than 10000 nM.

As to `Cc1cn2cc(-c3ccc4c(=O)n(C5CCNCC5)ncc4c3)cc(C)c2n1` [Compound 257], the AC50 in the assay on HTT mRNA (setting [1]) and in the assay with HTT mRNA (setting [2]) was 100 to 1000 nM throughout. The IC50 with SMN2 CJ mRNA was less than 100 nM; in the assay on Target C CJ mRNA it was 1000 to 10000 nM; in the assay on HTT CJ mRNA, 100 to 1000 nM.
